14 compounds from patent EP4813381A1, “PHARMACEUTICAL USE OF GUAIANE SESQUITERPENE DERIVATIVE” (Nanjing University Of Chinese Medicine, priority 2023, dated 2025) can be followed below.

Series [1] is described as follows: Conversion rate of salt-form prodrugs to parent compound in HEPES buffer solution. It counts as physicochemical. On the procedure: Adjust the pH to 7.4 using 0.5 M NaOH, then dilute to a final volume 100 mL with distilled water.
(§1) Sample Analysis: Dissolve 0.6 mg of the compound in 250 µl of deionized water separately. Add 250 µl of mouse serum or HEPES 7.4 solution to the sample, incubate at a constant temperature of 37 °C, and collect samples at different time points. Pipette 20 µl of the sample to an EP tube, add 60 µl of methanol, vortex to mix thoroughly, and centrifuge at 12,000 rpm at 4 °C for 10 min. At 1 h, 2 h, 4 h, 8 h, and 12 h respectively, collect the supernatant for HPLC analysis. Inject 10 µL of sample and record the corresponding peak areas.

Series [2] is described as follows: Conversion rate of salt-form prodrugs to parent compound in mouse plasma. It counts as in vitro ADME. To be noted: 37 °C. Here is the method: Pharmaceutically acceptable salts of guaiane-type sesquiterpene lactone derivatives were selected and evaluated for their conversion rates to Compound 1 and Compound 83 in plasma and HEPES buffer, with results shown in Tables 2-1, 2-2, 3-1, and 3-2.
Plasma Preparation: Collect mouse plasma into an EP tube pre-loaded with sodium heparin, centrifuge at 8000 rpm for 10 minutes at 4°C, and then collect the supernatant.
as §1, with “areas. Chromatographic conditions: Hanbang C18 column (4.6 × 250 mm, 5 µm); mobile phase: acetonitrile: […] ammonium formate solution = 60:40; flow rate 1.0 mL/min; detection wavelength 210 nm; column temperature 30 °C. [drawing 171] Table 2-1. Conversion Rate of Compounds 20-42 to Compound 1 at Different Time Points in HEPES Buffer Solution” for “areas.”

[3] abbreviates: conversion to Compound 1, HEPES buffer pH 7.4, 37 °C, 1 h.
Where [4] appears, read: conversion to Compound 1, HEPES buffer pH 7.4, 37 °C, 2 h.
Where [5] appears, read: conversion to Compound 1, HEPES buffer pH 7.4, 37 °C, 4 h.
The mark [6] stands for this setting: conversion to Compound 1, HEPES buffer pH 7.4, 37 °C, 8 h.
Setting [7] is: conversion to Compound 1, HEPES buffer pH 7.4, 37 °C, 12 h.
[8] abbreviates: conversion to Compound 1, mouse plasma, 1 h.
Where [9] appears, read: conversion to Compound 1, mouse plasma, 2 h.
The mark [10] stands for this setting: conversion to Compound 1, mouse plasma, 4 h.
The mark [11] stands for this setting: conversion to Compound 1, mouse plasma, 8 h.
[12] abbreviates: conversion to Compound 1, mouse plasma, 12 h.
Setting [13] is: conversion to Compound 83, HEPES buffer pH 7.4, 37 °C, 1 h.
Setting [14] is: conversion to Compound 83, HEPES buffer pH 7.4, 37 °C, 2 h.
Where [15] appears, read: conversion to Compound 83, HEPES buffer pH 7.4, 37 °C, 4 h.
Where [16] appears, read: conversion to Compound 83, HEPES buffer pH 7.4, 37 °C, 8 h.
Setting [17] is: conversion to Compound 83, HEPES buffer pH 7.4, 37 °C, 12 h.
Where [18] appears, read: conversion to Compound 83, mouse plasma, 1 h.
[19] abbreviates: conversion to Compound 83, mouse plasma, 2 h.
The mark [20] stands for this setting: conversion to Compound 83, mouse plasma, 4 h.
Setting [21] is: conversion to Compound 83, mouse plasma, 8 h.
[22] abbreviates: conversion to Compound 83, mouse plasma, 12 h.

For `C[C@@]12CC[C@@H]3[C@H](OC(=O)[C@H]3CN3CCC(N4CCCCC4)CC3)[C@@H]3[C@]1(CC[C@@]3(C)O)C2` [compound 35], the Release rate is on record as 6.8% in series [1] (setting [3]); 14.6% in series [1] (setting [4]); 26.4% in series [1] (setting [5]); 43.8% in series [1] (setting [6]); 52.5% in series [1] (setting [7]); 6.8% in series [2] (setting [8]). For the same compound, the Release rate in series [2] (setting [9]) was found to be 13.6%; in series [2] (setting [10]), 26.4%; in series [2] (setting [11]) it was 44.8%; in series [2] (setting [12]), 52.5%.
In the case of `C[C@@]12CC[C@@H]3[C@H](OC(=O)[C@H]3CN3CCC4(CCCC4)CC3)[C@@H]3[C@]1(CC[C@@]3(C)O)C2` [compound 34], the Release rate in series [1] (setting [3]) was determined as 7.0%; in series [1] (setting [4]), 16.2%; in series [1] (setting [5]) it was 27.6%; in series [1] (setting [6]), 43.6%; in series [1] (setting [7]), 54.4%; in series [2] (setting [8]), 7.8%. Also, the Release rate in series [2] (setting [9]) is 17.2%; in series [2] (setting [10]) it was 28.6%; in series [2] (setting [11]), 47.6%; in series [2] (setting [12]) it was 58.8%.
For the compound `C[C@@]12CC[C@@H]3[C@H](OC(=O)[C@H]3CN3CCCC3)[C@@H]3[C@]1(CC[C@@]3(C)O)C2` [compound 22], the Release rate in series [1] (setting [3]) is recorded as 6.4%; in series [1] (setting [4]) it was 14.8%; in series [1] (setting [5]), 26.6%; in series [1] (setting [6]), 41.3%; in series [1] (setting [7]) it was 53.7%.
As for `C[C@@]12CC[C@@H]3[C@H](OC(=O)[C@H]3CN3CCNCC3)[C@@H]3[C@]1(CC[C@@]3(C)O)C2` [compound 26], the Release rate came to 6.8% in series [1] (setting [3]); 16.1% in series [1] (setting [4]); 27.3% in series [1] (setting [5]); 43.5% in series [1] (setting [6]); 55.6% in series [1] (setting [7]).
For the compound `CC1=C2CC[C@@](C)(OC(=O)N3CCCCC3)[C@@H]2[C@H]2OC(=O)[C@@H](CN3CCCC3)[C@@H]2CC1` [compound 101], the Release rate in series [1] (setting [13]) was found to be 7.0%; in series [1] (setting [14]), 16.0%; in series [1] (setting [15]) it was 28.2%; in series [1] (setting [16]), 46.4%; in series [1] (setting [17]), 53.6%; in series [2] (setting [18]) it was 7.6%. Further, the Release rate was 16.6% in series [2] (setting [19]), 27.4% in series [2] (setting [20]), 46.0% in series [2] (setting [21]) and 54.2% in series [2] (setting [22]).
As to `C[C@@]12CC[C@@H]3[C@H](OC(=O)[C@H]3CN3CC4CCCC4C3)[C@@H]3[C@]1(CC[C@@]3(C)O)C2` (stereo partly drawn) [compound 32], the Release rate in series [1] (setting [3]) is 6.9%; in series [1] (setting [4]) it was 15.4%; in series [1] (setting [5]), 26.2%; in series [1] (setting [6]), 42.2%; in series [1] (setting [7]) it was 51.2%; in series [2] (setting [8]), 6.3%. Moreover, the Release rate stood at 14.4% in series [2] (setting [9]), 25.2% in series [2] (setting [10]), 43.2% in series [2] (setting [11]) and 51.4% in series [2] (setting [12]).
As to `CCCCN(CCCC)C[C@@H]1C(=O)O[C@H]2[C@H]1CC[C@@]1(C)C[C@]13CC[C@@](C)(O)[C@H]23` [compound 30], the Release rate in series [1] (setting [3]) worked out at 6.6%; in series [1] (setting [4]), 14.6%; in series [1] (setting [5]), 23.8%; in series [1] (setting [6]) it was 40.8%; in series [1] (setting [7]) it was 49.8%; in series [2] (setting [8]) it was 6.6%. The Release rate in series [2] (setting [9]) worked out at 13.6%; in series [2] (setting [10]), 23.8%; in series [2] (setting [11]) it was 40.8%; in series [2] (setting [12]), 48.8%.
As for `CN(C)C[C@@H]1C(=O)O[C@H]2[C@H]1CC[C@@]1(C)C[C@]13CC[C@@](C)(O)[C@H]23` [compound 40], the Release rate in series [1] (setting [3]) came to 6.8%; in series [1] (setting [4]), 14.6%; in series [1] (setting [6]), 44.0%; in series [1] (setting [7]), 50.2%; in series [2] (setting [8]) it was 6.7%; in series [2] (setting [9]) it was 14.2%. Also, the values for the Release rate in series [2] (setting [11]) and in series [2] (setting [12]) were 44.0% and 52.6%, respectively.
For the compound `C[C@@]12CC[C@@H]3[C@H](OC(=O)[C@H]3CN3CCC(N4CCOCC4)CC3)[C@@H]3[C@]1(CC[C@@]3(C)O)C2` [compound 36], the Release rate in series [1] (setting [3]) is listed as 6.9%; in series [1] (setting [4]), 14.8%; in series [1] (setting [5]) it was 26.0%; in series [1] (setting [6]), 43.6%; in series [1] (setting [7]), 52.4%; in series [2] (setting [8]) it was 6.6%. Further, the Release rate stood at 14.8% in series [2] (setting [9]), 26.0% in series [2] (setting [10]), 43.6% in series [2] (setting [11]) and 52.1% in series [2] (setting [12]).
With `CCCN(CCC)C[C@@H]1C(=O)O[C@H]2[C@H]1CC[C@@]1(C)C[C@]13CC[C@@](C)(O)[C@H]23` [compound 29], the Release rate was found to be 6.8% in series [1] (setting [3]); 14.2% in series [1] (setting [4]); 24.6% in series [1] (setting [5]); 40.2% in series [1] (setting [6]); 49.8% in series [1] (setting [7]); 6.8% in series [2] (setting [8]). Besides, the Release rate in series [2] (setting [9]) is given as 14.2%; in series [2] (setting [10]) it was 24.6%; in series [2] (setting [11]) it was 40.2%; in series [2] (setting [12]), 49.0%.
In the case of `CC1=C2CC[C@@](C)(OC(=O)N3CCCCC3)[C@@H]2[C@H]2OC(=O)[C@@H](CN3CCCC3)[C@@H]2CC1` [compound 100], the Release rate stood at 6.5% in series [1] (setting [13]); 14.0% in series [1] (setting [14]); 26.4% in series [1] (setting [15]); 45.2% in series [1] (setting [16]); 51.4% in series [1] (setting [17]); 6.6% in series [2] (setting [18]). Moreover, the Release rate in series [2] (setting [19]) is reported as 13.8%; in series [2] (setting [20]), 25.6%; in series [2] (setting [21]), 43.2%; in series [2] (setting [22]), 53.0%.
In the case of `C[C@@]12CC[C@@H]3[C@H](OC(=O)[C@H]3CN3CCC4(CC3)CC4)[C@@H]3[C@]1(CC[C@@]3(C)O)C2` [compound 37], the Release rate in series [1] (setting [3]) is on record as 7.2%; in series [1] (setting [4]), 16.8%; in series [1] (setting [5]), 28.3%; in series [1] (setting [6]), 44.1%; in series [1] (setting [7]) it was 65.8%; in series [2] (setting [8]), 8.2%. Moreover, the Release rate in series [2] (setting [9]) is reported as 17.8%; in series [2] (setting [10]) it was 29.3%; in series [2] (setting [11]), 48.1%; in series [2] (setting [12]) it was 67.8%.
In the case of `C[C@@]12CC[C@@H]3[C@H](OC(=O)[C@H]3CN3CCCCCCC3)[C@@H]3[C@]1(CC[C@@]3(C)O)C2` [compound 38], the Release rate was 6.9% in series [1] (setting [3]); 14.8% in series [1] (setting [4]); 25.4% in series [1] (setting [5]); 41.4% in series [1] (setting [6]); 50.7% in series [1] (setting [7]); 6.1% in series [2] (setting [8]). The Release rate is given as 14.5% in series [2] (setting [9]), 25.4% in series [2] (setting [10]), 41.4% in series [2] (setting [11]) and 49.7% in series [2] (setting [12]).
With `CCN1CCN(C[C@@H]2C(=O)O[C@H]3[C@H]2CC[C@@]2(C)C[C@]24CC[C@@](C)(O)[C@H]34)CC1` [compound 27], the Release rate in series [2] (setting [8]) is 7.9%; in series [2] (setting [9]) it was 17.4%; in series [2] (setting [10]) it was 28.4%; in series [2] (setting [11]) it was 48.2%; in series [2] (setting [12]), 59.1%.
